According to patent publication US20220056043A1, “NITROGEN-CONTAINING FUSED CYCLIC COMPOUND, PREPARATION METHOD THEREFOR AND USE THEREOF” (SICHUAN KELUN-BIOTECH BIOPHARMACEUTICAL CO., LTD., priority 2019, published 2022):
pEC50: −log10 of the molar value.

Assays:
[1] = molecular target: T1, hTLR8 (Homo sapiens, UniProt Q9NR97); test: Agonistic effect on hTLR8, HEK-Blue hTLR8 cells, alkaline phosphatase secretion; format: cell-based; settings: 16 hours
T1 construct: host or cells: HEK-Blue hTLR8 cells
T1 sequence (Q9NR97 27-1041): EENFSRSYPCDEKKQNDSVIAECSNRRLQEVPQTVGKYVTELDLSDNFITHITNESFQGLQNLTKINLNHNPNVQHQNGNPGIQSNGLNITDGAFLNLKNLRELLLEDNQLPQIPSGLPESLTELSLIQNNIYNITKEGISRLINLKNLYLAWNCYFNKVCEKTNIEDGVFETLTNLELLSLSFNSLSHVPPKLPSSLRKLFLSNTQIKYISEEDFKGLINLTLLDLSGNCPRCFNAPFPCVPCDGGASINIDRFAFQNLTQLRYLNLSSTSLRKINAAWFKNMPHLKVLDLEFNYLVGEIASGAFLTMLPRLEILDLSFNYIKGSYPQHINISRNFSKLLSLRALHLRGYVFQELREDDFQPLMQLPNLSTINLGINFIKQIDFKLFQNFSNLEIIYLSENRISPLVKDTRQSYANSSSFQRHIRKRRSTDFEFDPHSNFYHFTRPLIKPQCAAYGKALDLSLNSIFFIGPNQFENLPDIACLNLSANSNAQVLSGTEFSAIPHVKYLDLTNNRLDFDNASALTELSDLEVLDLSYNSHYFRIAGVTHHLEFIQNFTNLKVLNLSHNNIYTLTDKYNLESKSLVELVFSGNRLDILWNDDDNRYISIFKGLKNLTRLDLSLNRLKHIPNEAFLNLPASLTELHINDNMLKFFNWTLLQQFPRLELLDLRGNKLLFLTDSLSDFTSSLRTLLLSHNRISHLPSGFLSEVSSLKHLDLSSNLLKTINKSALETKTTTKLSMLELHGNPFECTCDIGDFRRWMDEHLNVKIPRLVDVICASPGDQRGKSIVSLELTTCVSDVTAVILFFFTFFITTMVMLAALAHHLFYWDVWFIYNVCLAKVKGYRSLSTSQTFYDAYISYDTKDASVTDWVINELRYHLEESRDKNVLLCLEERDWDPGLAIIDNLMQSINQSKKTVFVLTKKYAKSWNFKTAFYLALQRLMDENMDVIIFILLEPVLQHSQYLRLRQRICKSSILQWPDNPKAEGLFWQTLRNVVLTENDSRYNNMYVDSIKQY
In short: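 HEK-Blue hTLR8 reporter cells were treated with compound (diluted from 10 mM DMSO stock) for 16 h at 37 °C in DMEM/10% FBS. Secreted alkaline phosphatase in supernatant was detected with QUANTI-Blue after 3 h at 37 °C, read at OD620. EC50 came from a four-parameter variable-slope fit.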

[2] = molecular target: T2, hNLRP3 inflammasome (Homo sapiens, UniProt Q96P20); test: Agonistic effect on the expression of IL-1β in THP-1 cells after PMA-induced differentiation (HTRF); format: cell-based; settings: IL-1β level, PMA-differentiated THP-1 cells, 6 hours
T2 construct: endogenous in cells; host or cells: THP-1 cells, PMA-differentiated
T2 sequence (Q96P20 whole entry): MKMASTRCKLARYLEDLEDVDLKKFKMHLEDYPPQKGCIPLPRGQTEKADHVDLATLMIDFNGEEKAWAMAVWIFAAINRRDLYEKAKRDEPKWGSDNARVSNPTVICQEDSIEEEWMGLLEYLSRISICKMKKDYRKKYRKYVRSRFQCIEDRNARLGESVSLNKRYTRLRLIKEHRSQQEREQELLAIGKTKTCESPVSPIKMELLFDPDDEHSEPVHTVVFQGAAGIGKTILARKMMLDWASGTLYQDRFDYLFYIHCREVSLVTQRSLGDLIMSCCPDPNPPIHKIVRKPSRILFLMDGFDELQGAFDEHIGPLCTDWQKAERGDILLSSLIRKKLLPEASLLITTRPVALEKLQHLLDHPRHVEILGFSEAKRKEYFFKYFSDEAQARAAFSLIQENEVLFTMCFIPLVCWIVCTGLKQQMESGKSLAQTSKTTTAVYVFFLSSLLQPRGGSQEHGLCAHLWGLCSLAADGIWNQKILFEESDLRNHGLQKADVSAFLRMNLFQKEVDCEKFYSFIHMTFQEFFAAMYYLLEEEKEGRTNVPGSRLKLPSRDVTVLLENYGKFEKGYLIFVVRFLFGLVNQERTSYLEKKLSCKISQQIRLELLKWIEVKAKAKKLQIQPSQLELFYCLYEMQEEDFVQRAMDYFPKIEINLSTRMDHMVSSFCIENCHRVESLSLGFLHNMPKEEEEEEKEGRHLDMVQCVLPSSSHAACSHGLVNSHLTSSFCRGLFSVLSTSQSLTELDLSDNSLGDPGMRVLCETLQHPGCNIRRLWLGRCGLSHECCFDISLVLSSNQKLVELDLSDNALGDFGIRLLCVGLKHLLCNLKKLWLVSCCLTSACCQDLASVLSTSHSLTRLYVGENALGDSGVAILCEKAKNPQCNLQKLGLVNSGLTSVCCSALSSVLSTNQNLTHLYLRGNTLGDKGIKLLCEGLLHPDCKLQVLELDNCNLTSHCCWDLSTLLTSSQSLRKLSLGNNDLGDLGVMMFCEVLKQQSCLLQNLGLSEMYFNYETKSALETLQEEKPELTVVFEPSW
In short: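 THP-1 cells differentiated with 1 μM PMA for 24 h, then replated at 1×10^5 cells/well in RPMI 1640 with 2% FBS. Compounds added for 6 h at 37 °C, 5% CO2. Supernatant IL-1β measured by HTRF; EC50 from four-parameter variable-slope fit.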

| Structure (SMILES) | pEC50 [1] | EC50 [2] |
| --- | --- | --- |
| CCC(=O)N(CC)CCNc1cc(N)nc2cc(-c3ccn[nH]3)sc12 [Compound 145, N-(2-((5-amino-2-(1H-pyrazol-5-yl)thieno[3,2-b]pyridin-7-yl)amino)ethyl)-N-ethylpropionamide] | < 4.00 | 0.31 µM |
| Nc1cc(N[C@H]2[C@@H]3CNC[C@@H]32)c2sc(-c3ccn[nH]3)cc2n1 [Compound 142, N^7-((1R,5S,6S)-3-azabicyclo[3.1.0]hex-6-yl)-2-(1H-pyrazol-5-yl)thieno[3,2-b]pyridin-5,7-diamine] | < 4.00 | 0.14 µM |
| Nc1cc(NCC(CO)CO)c2sc(-c3ccn[nH]3)cc2n1 [Compound 136] | < 4.00 | 0.05 µM |
| COC[C@@H](C)Nc1cc(N)nc2cc(-c3ccn[nH]3)sc12 [Compound 133, (R)—N^7-(1-methoxyprop-2-yl)-2-(1H-pyrazol-5-yl)thieno[3,2-b]pyridine-5,7-diamine] | < 4.00 | 0.58 µM |
| Nc1cc(NC2CCC(F)(F)CC2)c2sc(-c3ccn[nH]3)cc2n1 [Compound 143, N^7-(4,4-difluorocyclohexyl)-2-(1H-pyrazol-5-yl)thieno[3,2-b]pyridin-5,7-diamine] | < 4.00 | 0.08 µM |
| C[C@@H](O)CNc1cc(N)nc2cc(-c3ccn[nH]3)sc12 [Compound 29] | < 4.00 | 0.16 µM |
| C[C@@H]1CN(CCNc2cc(N)nc3cc(-c4ccn[nH]4)sc23)C[C@@H](C)O1 [Compound 124, N^7-(2-((2R,6R)-2,6-dimethylmorpholino)ethyl)-2-(1H-pyrazol-5-yl)thieno[3,2-b]pyridine-5,7-diamine] | < 4.00 | 0.05 µM |
| C[C@@H]1CN(c2cc(N)nc3cc(-c4ccn[nH]4)sc23)C[C@@H](C)O1 [Compound 148, 7-((2R,6R)-2,6-dimethylmorpholino)-2-(1H-pyrazol-5-yl)thieno[3,2-b]pyridine-5-amine] | < 4.00 | 0.008 µM |
| CC(C)CNc1cc(N)nc2cc(-c3ccn[nH]3)sc12 [Compound 141, N^7-isobutyl-2-(1H-pyrazol-5-yl)thieno[3,2-b]pyridin-5,7-diamine] | < 4.00 | 0.03 µM |
| CC[C@@H](CO)Nc1cc(N)nc2cc(-c3ccn[nH]3)sc12 [Compound 132, (S)-2-((5-amino-2-(1H-pyrazol-5-yl)thieno[3,2-b]pyridin-7-yl)amino)-1-butanol] | < 4.00 | 3.48 µM |
| Cc1cccnc1CNc1cc(N)nc2cc(-c3ccn[nH]3)sc12 [Compound 134, N^7-((3-methylpyridin-2-yl)methyl)-2-(1H-pyrazol-5-yl)thieno[3,2-b]pyridine-5,7-diamine] | < 4.00 | 0.03 µM |
| Nc1cc(NC(CCO)c2ccccc2)c2sc(-c3ccn[nH]3)cc2n1 (stereo not shown) [Compound 123, 3-((5-amino-2-(1H-pyrazol-5-yl)thieno[3,2-b]pyridin-7-yl)amino)-3-phenyl-1-propanol] | < 4.00 | 0.1 µM |
| Nc1cc(NCC2CCC2)c2sc(-c3ccn[nH]3)cc2n1 [Compound 126, N^7-(cyclobutylmethyl)-2-(1H-pyrazol-5-yl)thieno[3,2-b]pyridine-5,7-diamine] | < 4.00 | 0.35 µM |
| Nc1cc(NCCN2CCCC2=O)c2sc(-c3ccn[nH]3)cc2n1 [Compound 135, 1-(2-((5-amino-2-(1H-pyrazol-5-yl)thieno[3,2-b]pyridin-7-yl)amino)ethyl)pyrrolidin-2-one] | < 4.00 | 0.32 µM |
| Nc1cc(N[C@@H]2CC[C@@H](O)C2)c2sc(-c3ccn[nH]3)cc2n1 [Compound 30, (1R,3R)-3-((5-amino-2-(1H-pyrazol-5-yl)thieno[3,2-b]pyridin-7-yl)amino)cyclopentanol] | < 4.00 | 0.03 µM |
| CCN(CCNc1cc(N)nc2cc(-c3ccn[nH]3)sc12)C(=O)C1CC1 [Compound 146, N-(2-((5-amino-2-(1H-pyrazol-5-yl)thieno[3,2-b]pyridin-7-yl)amino)ethyl)-N-ethylcyclopropyl formamide] | < 4.00 | 0.29 µM |

| Structure (SMILES) | pEC50 [1] | EC50 [2] |
| --- | --- | --- |
| C[C@@H](CCO)Nc1cc(N)nc2cc(-c3ccn[nH]3)sc12 [Compound 125, (S)-3-((5-amino-2-(1H-pyrazol-5-yl)thieno[3,2-b]pyridin-7-yl)amino)butanol] | < 4.00 | 0.03 µM |
| C[C@H]1CC[C@H](Nc2cc(N)nc3cc(-c4ccn[nH]4)sc23)CC1 [Compound 128, N^7-((1R,4R)-4-methylcyclohexyl)-2-(1H-pyrazol-5-yl)thieno[3,2-b]pyridine-5,7-diamine] | < 4.00 | 0.11 µM |
| CCN(CCNc1cc(N)nc2cc(-c3ccn[nH]3)sc12)C(=O)Cc1cccc(C)c1 [Compound 140, N-(2-((5-amino-2-(1H-pyrazol-5-yl)thieno[3,2-b]pyridin-7-yl)amino)ethyl)-N-ethyl-2-(m-tolyl)acetamide] | < 4.00 | 0.5 µM |
| CN(CCO)c1cc(N)nc2cc(-c3ccn[nH]3)sc12 [Compound 139, 2-((5-amino-2-(1H-pyrazol-5-yl)thieno[3,2-b]pyridin-7-yl)(methyl)amino)ethanol] | < 4.00 | 0.07 µM |
| Nc1cc(NCCCN2CCCC2=O)c2sc(-c3ccn[nH]3)cc2n1 [Compound 150] | < 4.00 | 0.16 µM |
| Cc1noc(C)c1CNc1cc(N)nc2cc(-c3ccn[nH]3)sc12 [Compound 149, N^7-((3,5-dimethylisoxazol-4-yl)methyl)-2-(1H-pyrazol-5-yl)thieno[3,2-b]pyridine-5,7-diamine] | < 4.00 | 0.04 µM |
| Nc1cc(NCC(=O)NC2CC2)c2sc(-c3ccn[nH]3)cc2n1 [Compound 138, 2-((5-amino-2-(1H-pyrazol-5-yl)thieno[3,2-b]pyridin-7-yl)amino)-N-cyclopropylacetamide] | < 4.00 | 0.2 µM |
| CN(CCCO)c1cc(N)nc2cc(-c3ccn[nH]3)sc12 [Compound 127, 3-((5-amino-2-(1H-pyrazol-5-yl)thieno[3,2-b]pyridin-7-yl)(methyl)amino)-1-propanol] | < 4.00 | 0.11 µM |
| COCCNc1cc(N)nc2c(C)c(-c3cc[nH]n3)sc12 [Compound 152] | < 4.00 | 2.75 µM |
| CC(C)C[C@H](CO)Nc1cc(N)nc2cc(-c3ccn[nH]3)sc12 [Compound 144, (R)-2-((5-amino-2-(1H-pyrazol-5-yl)thieno[3,2-b]pyridin-7-yl)amino)-4-methyl-1-pentanol] | < 4.00 | 0.38 µM |
| CC(C)(O)CNc1cc(N)nc2cc(-c3ccn[nH]3)sc12 [Compound 28, (1-(5-amino-2-(1H-pyrazol-5-yl)thieno[3,2-b]pyridin-7-yl)amino)-2-methyl-2-propanol] | < 4.00 | 0.54 µM |
| CNC(=O)CNc1cc(N)nc2cc(-c3ccn[nH]3)sc12 [Compound 137, 2-((5-amino-2-(1H-pyrazol-5-yl)thieno[3,2-b]pyridin-7-yl)amino)-N-methylacetamide] | < 4.00 | 0.95 µM |
| Cc1c(-c2cc[nH]n2)sc2c(NCC(C)(C)CO)cc(N)nc12 [Compound 151] | < 4.00 | 3.66 µM |
| Nc1cc(N[C@H]2CC[C@H](O)CC2)c2sc(-c3ccn[nH]3)cc2n1 [Compound 147, (1R,4R)-4-((5-amino-2-(1H-pyrazol-5-yl)thieno[3,2-b]pyridin-7-yl)amino)cyclohexanol] | < 4.00 | 0.03 µM |
| C[C@]1(O)C[C@@H](Nc2cc(N)nc3cc(-c4ccn[nH]4)sc23)C1 [Compound 129, (1s,3s)-3-((5-amino-2-(1H-pyrazol-5-yl)thieno[3,2-b]pyridin-7-yl)amino)-1-methylcyclobutanol] | < 4.00 | 0.03 µM |
| C[C@H](Nc1cc(N)nc2cc(-c3ccn[nH]3)sc12)c1cccc(C(F)(F)F)c1 [Compound 131, (S)-2-(1H-pyrazol-5-yl)-N^7-(1-(3-(trifluoromethyl)phenyl)ethyl)thieno[3,2-b]pyridine-5,7-diamine] | < 4.00 | 0.06 µM |
